Drawing on patent publication US5902812A, “Pharmaceutical piperazine compounds” (Xenova Limited, priority 1994, dated 1999), this text covers inhibition, Degree of inhibition in PAI chromogenic substrate assay and IC50 for 27 compounds.

As a reminder, the inhibition is the share of the control response that was lost under treatment. What is called IC50 is the concentration at which inhibition is half-maximal.

Where a name gives a salt, the structure may show the parent alone. Read-outs that look alike come from different tables or passages of the source.

The target of the experiment is PAI-1 (Homo sapiens, UniProt P05121). In words: biochemical. The note with it: for IC50: PAI chromogenic substrate assay, read-out: IC50.
Chain of PAI-1 (P05121 24-402): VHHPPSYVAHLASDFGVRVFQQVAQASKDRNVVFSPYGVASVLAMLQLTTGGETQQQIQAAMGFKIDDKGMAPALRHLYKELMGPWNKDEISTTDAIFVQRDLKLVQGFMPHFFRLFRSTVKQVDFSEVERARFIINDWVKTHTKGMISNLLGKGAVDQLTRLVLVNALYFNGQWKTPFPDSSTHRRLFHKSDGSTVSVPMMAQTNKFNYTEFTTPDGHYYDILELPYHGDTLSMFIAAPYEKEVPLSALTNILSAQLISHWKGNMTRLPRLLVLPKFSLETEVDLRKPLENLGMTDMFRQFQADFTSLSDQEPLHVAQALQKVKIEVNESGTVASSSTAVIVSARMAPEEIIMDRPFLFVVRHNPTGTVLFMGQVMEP
The mark [1] stands for this setting: 20 μM (third part of Table 1), read-out: Degree of inhibition in PAI chromogenic substrate assay.
Where [2] appears, read: 100 μM (third part of Table 1), read-out: Degree of inhibition in PAI chromogenic substrate assay.
Where [3] appears, read: 6.25 μM, read-out: Degree of inhibition in PAI chromogenic substrate assay.
[4] abbreviates: 12.5 μM, read-out: Degree of inhibition in PAI chromogenic substrate assay.
Setting [5] is: 50 μM (third part of Table 1), read-out: Degree of inhibition in PAI chromogenic substrate assay.

Take `COc1ccccc1/C=c1\[nH]c(=O)/c(=C/c2ccc(OCCCN(C)C)cc2)[nH]c1=O` [Compound 5241, (3Z,6Z)-6-(4-(3-Dimethylaminopropoxy)benzylidene)-3-(2-methoxybenzylidene)-2,5-piperazinedione]: under setting [1], the inhibition at 20 µM is 1%. The inhibition at 100 µM under setting [2] came to 21%.
Consider `CN(C)CCCOc1ccc(/C=c2\[nH]c(=O)/c(=C/c3cccc(Cl)c3)[nH]c2=O)cc1` [Compound 5240], for which the IC50 was 6.5 µM. Further, the Degree of inhibition in PAI chromogenic substrate assay (20 μM (third part of Table 1), 20 µM) came to 65%. The Degree of inhibition in PAI chromogenic substrate assay (100 μM (third part of Table 1), 100 µM) came to 46%.
Take `CN(C)CCCOc1ccc(/C=c2\[nH]c(=O)/c(=C/c3ccc(C(=O)NCCCCc4ccccc4)cc3)[nH]c2=O)cc1` [Compound 5347, N-(4-Phenylbutyl)-4-((3Z,6Z)-6-(4-(3-Dimethylaminopropoxy)benzylidene)-2,5-dioxo-3-piperazinylidene)methylbenzamide]: the inhibition at 20 µM under setting [1] stood at 39%.
Regarding `CN(C)CCCOc1ccc(/C=c2\[nH]c(=O)/c(=C/c3cccc(N4C(=O)c5ccccc5C4=O)c3)[nH]c2=O)cc1` [Compound 5255, (3Z,6Z)-6-(4-(3-Dimethylaminopropoxy)benzylidene)-3-(3-phthalimidobenzylidene)-2,5-piperazinedione], the IC50 was 15 µM. The inhibition at 20 µM under setting [1] is 80%. Moreover, under setting [2], the inhibition at 100 µM is 33%.
On the same counts, the results for `CN(C)CCCOc1ccc(/C=c2\[nH]c(=O)/c(=C/c3ccc([N+](=O)[O-])cc3)[nH]c2=O)cc1` [Compound 5230, (3Z,6Z)-3-(4-(3-dimethylaminopropoxy)benzylidene)-6-(4-nitrobenzylidene)-2,5-piperazinedione] are 0.75 µM, 30% and 9%.
As to `CN(C)CCCOc1ccc(/C=c2\[nH]c(=O)/c(=C/c3ccc(C(C)(C)C)cc3)[nH]c2=O)cc1` [Compound 5238, (3Z,6Z)-3-(4-(3-Dimethylaminopropoxy)benzylidene)-6-(4-tert-butylbenzylidene)-2,5-piperazinedione], under setting [1], the inhibition at 20 µM was 3%. For the same compound, the inhibition at 100 µM under setting [2] worked out at 36%.
`CN(C)CCOc1ccc(/C=c2\[nH]c(=O)/c(=C/c3ccccc3)[nH]c2=O)c(OCCN(C)C)c1` [Compound 1969]: under setting [3], the inhibition at 6.25 µM worked out at 2%. Further, under setting [4], the inhibition at 12.5 µM came to 0%. For the same compound, the Degree of inhibition in PAI chromogenic substrate assay (25 μM) stood at 6%, the Degree of inhibition in PAI chromogenic substrate assay (50 μM) is 20% and the Degree of inhibition in PAI chromogenic substrate assay (100 μM) amounted to 52%.
With `CN(C)CCSCc1ccc(/C=c2\[nH]c(=O)/c(=C/c3ccccc3)[nH]c2=O)cc1` [Compound 5058, (3Z,6Z)-6-Benzylidene-3-(4-(2-Dimethylaminoethylthiomethyl)benzylidene)-2,5-piperazinedione], the inhibition at 20 µM under setting [1] is 75%. Also, the inhibition at 50 µM under setting [5] was 68%. For the same compound, under setting [2], the inhibition at 100 µM came out at 67%.
In the case of `CN(C)CCCOc1ccc(/C=c2\[nH]c(=O)/c(=C/c3cccc(Br)c3)[nH]c2=O)cc1` [Compound 5375, (3Z,6Z)-3-(3-Bromobenzylidene)-6-(4-(3-dimethylaminopropoxy)benzylidene)-2,5-piperazinedione], the half-maximal inhibitory concentration (IC50) was 4.5 µM.
Turning to `CN(C)CCCOc1ccc(/C=c2\[nH]c(=O)/c(=C/c3cccc(C#N)c3)[nH]c2=O)cc1` [Compound 5232, (3Z,6Z)-3-(3-Cyanobenzylidene)-6-(4-(3-dimethylaminopropoxy)benzylidene)-2,5-piperazinedione], the inhibition at 100 µM under setting [2] is 10%.
For `CN(C)CCOc1ccc(/C=c2\[nH]c(=O)/c(=C/c3ccccc3)[nH]c2=O)cc1` [Compound 1956], the Degree of inhibition in PAI chromogenic substrate assay was determined as 31% (6.25 μM); 65% (12.5 μM); 69% (25 μM); 69% (50 μM); 61% (100 μM).
Turning to `CN(C)CCCOc1ccc(/C=c2\[nH]c(=O)/c(=C/c3ccc(C#N)cc3)[nH]c2=O)cc1` [Compound 5348], the inhibition at 20 µM under setting [1] came out at 15%.
`CN(C)Cc1ccc(/C=c2\[nH]c(=O)/c(=C/c3ccccc3)[nH]c2=O)cc1` [Compound 1913, (3Z,6Z)-3-Benzylidene-6-(4-dimethylaminomethylbenzylidene)-2,5-piperazinedione]: the inhibition at 6.25 µM under setting [3] amounted to 15%. The inhibition at 12.5 µM under setting [4] amounted to 14%. The inhibition at 25 µM (25 μM, read-out: Degree of inhibition in PAI chromogenic substrate assay) turned out to be 19%. For the same compound, the inhibition at 50 µM (50 μM, read-out: Degree of inhibition in PAI chromogenic substrate assay) was 54%. Besides, the inhibition at 100 µM (100 μM, read-out: Degree of inhibition in PAI chromogenic substrate assay) is 71%.
For the compound `CN(C)CCOc1ccc(/C=c2\[nH]c(=O)/c(=C/c3ccccc3)[nH]c2=O)cc1` [Compound 1924, (3Z,6Z)-3-Benzylidene-6-(4-(2-dimethylaminoethoxy)benzylidene)-2,5-piperazinedione], the Degree of inhibition in PAI chromogenic substrate assay (6.25 μM) came to 9%; the Degree of inhibition in PAI chromogenic substrate assay (12.5 μM) was 7%; the Degree of inhibition in PAI chromogenic substrate assay (25 μM) was 18%; the Degree of inhibition in PAI chromogenic substrate assay (50 μM) turned out to be 38%; the Degree of inhibition in PAI chromogenic substrate assay (100 μM) is 64%.
For the compound `CN(C)CCCOc1ccc(/C=c2\[nH]c(=O)/c(=C/c3ccc(Cl)c(Cl)c3)[nH]c2=O)cc1` [Compound 5236], the IC50 was found to be 2.8 µM.
Take `CC(=O)Nc1cccc(/C=c2\[nH]c(=O)/c(=C/c3ccc(OCCCN(C)C)cc3)[nH]c2=O)c1` [Compound 5256, (3Z,6Z)-3-(3-Acetamidobenzylidene)-6-(4-(3-dimethylaminopropoxy)benzylidene)-2,5-piperazinedione]: the IC50 worked out at 100 µM. Further, under setting [1], the inhibition at 20 µM stood at 10%. For the same compound, under setting [2], the inhibition at 100 µM came out at 65%.
As for `CN(C)CCCOc1ccc(/C=c2\[nH]c(=O)/c(=C/c3cc(Cl)cc(Cl)c3)[nH]c2=O)cc1` [Compound 5372, (3Z,6Z)-3-(3,5-Dichlorobenzylidene)-6-(4-(3-dimethylaminopropoxy)benzylidene)-2,5-piperazinedione], the concentration for half-maximal inhibition (IC50) was found to be 11 µM.
In the case of `CN(C)CCCOc1ccc(/C=c2\[nH]c(=O)/c(=C/c3ccc(N(C)C)cc3)[nH]c2=O)cc1` [Compound 5068.HCl, (3Z,6Z)-3-(4-Dimethylaminobenzylidene)-6-(4-(3-dimethylaminopropoxy)benzylidene)-2,5-piperazinedione], the inhibition at 20 µM under setting [1] turned out to be 81%. Besides, the inhibition at 50 µM under setting [5] was determined as 76%. Further, under setting [2], the inhibition at 100 µM worked out at 75%.
Take `COC(=O)c1ccc(/C=c2\[nH]c(=O)/c(=C/c3ccc(OCCCN(C)C)cc3)[nH]c2=O)cc1` [Compound 5401, Methyl 4((3Z,6Z)-6-(4-(3-Dimethylaminopropoxy)benzylidene)-2,5-dioxo-3-piperazinylidene)methylbenzoate]: the inhibition at 20 µM under setting [1] came out at 42%.
On to `CN(C)CCCOc1ccc(/C=c2\[nH]c(=O)/c(=C/c3cc(Cl)cc(Cl)c3)[nH]c2=O)cc1` [Compound 5380, (3Z,6Z)-3-(3,5-Dichlorobenzylidene)-6-(4-(3-dimethylaminopropoxy)benzylidene)-2,5-piperazinedione], for which the 50% inhibitory concentration (IC50) was determined as 15 µM.
As for `CN(C)CCCOc1ccc(/C=c2\[nH]c(=O)/c(=C/c3ccc(N)cc3)[nH]c2=O)cc1` [Compound 5260], the IC50 was found to be 17 µM.
On to `CN(C)CCCOc1ccc(/C=c2\[nH]c(=O)/c(=C/c3ccc(Br)cc3)[nH]c2=O)cc1` [Compound 5360], for which the IC50 is 3.5 µM. For the same compound, the inhibition at 20 µM under setting [1] is 59%.
For `COc1ccc(/C=c2\[nH]c(=O)/c(=C/c3ccc(OCCCN(C)C)cc3)[nH]c2=O)cc1` [Compound 5234, (3Z,6Z)-3-(4-(3-Dimethylaminopropoxy)benzylidene)-6-(4-methoxybenzylidene)-2,5-piperazinedione], the inhibition at 100 µM under setting [2] was 10%.
`Cc1ccccc1/C=c1\[nH]c(=O)/c(=C/c2ccc(OCCCN(C)C)cc2)[nH]c1=O` [Compound 5186, (3Z,6Z)-6-(4-(3-Dimethylaminopropoxy)benzylidene)-3-(2-methylbenzylidene)-2,5-piperazinedione]: the inhibition at 20 µM under setting [1] amounted to 10%. The inhibition at 100 µM under setting [2] is 46%.
Take `CN(C)CCOc1ccc(/C=c2\[nH]c(=O)/c(=C/c3ccccc3)[nH]c2=O)cc1` [Compound 1961, (3Z,6Z)-3-Benzylidene-6-(4-(2-dimethylaminoethoxy)benzylidene)-2,5-piperazinedione]: under “3.75 μM, read-out: Degree of inhibition in PAI chromogenic substrate assay”, the inhibition at 3.75 µM amounted to 1%. For the same compound, the inhibition at 7.5 µM (7.5 μM, read-out: Degree of inhibition in PAI chromogenic substrate assay) was 11%. The inhibition at 15 µM (15 μM, read-out: Degree of inhibition in PAI chromogenic substrate assay) worked out at 41%. In addition, the inhibition at 30 µM (30 μM, read-out: Degree of inhibition in PAI chromogenic substrate assay) is 49%. For the same compound, under “60 μM, read-out: Degree of inhibition in PAI chromogenic substrate assay”, the inhibition at 60 µM was determined as 48%.
As for `CC(=O)Nc1ccccc1/C=c1\[nH]c(=O)/c(=C/c2ccc(OCCCN(C)C)cc2)[nH]c1=O` [Compound 5248], under setting [2], the inhibition at 100 µM came to 10%.
On to `CN(C)CCOc1ccc(/C=c2\[nH]c(=O)/c(=C/c3ccccc3)[nH]c2=O)cc1OCCN(C)C` [Compound 1978, (3Z,6Z)-6-Benzylidene-3-(3,4-di-(2-dimethylaminoethoxy)benzylidene)-2,5-piperazinedione], for which the Degree of inhibition in PAI chromogenic substrate assay runs as follows: (6.25 μM) 3%; (12.5 μM) 0%; (25 μM) 11%; (50 μM) 41%; (100 μM) 50%.
